pIC50: −log10 of the molar value.
How the values were obtained:
Progesterone receptor = molecular target: T1, Progesterone receptor (Homo sapiens, UniProt P06401); assay: Displacement of [3H]progesterone from progesterone receptor in human T47D cells after 3 hrs by scintillation counting; assay type: cell-based
T1 sequence (P06401 whole entry): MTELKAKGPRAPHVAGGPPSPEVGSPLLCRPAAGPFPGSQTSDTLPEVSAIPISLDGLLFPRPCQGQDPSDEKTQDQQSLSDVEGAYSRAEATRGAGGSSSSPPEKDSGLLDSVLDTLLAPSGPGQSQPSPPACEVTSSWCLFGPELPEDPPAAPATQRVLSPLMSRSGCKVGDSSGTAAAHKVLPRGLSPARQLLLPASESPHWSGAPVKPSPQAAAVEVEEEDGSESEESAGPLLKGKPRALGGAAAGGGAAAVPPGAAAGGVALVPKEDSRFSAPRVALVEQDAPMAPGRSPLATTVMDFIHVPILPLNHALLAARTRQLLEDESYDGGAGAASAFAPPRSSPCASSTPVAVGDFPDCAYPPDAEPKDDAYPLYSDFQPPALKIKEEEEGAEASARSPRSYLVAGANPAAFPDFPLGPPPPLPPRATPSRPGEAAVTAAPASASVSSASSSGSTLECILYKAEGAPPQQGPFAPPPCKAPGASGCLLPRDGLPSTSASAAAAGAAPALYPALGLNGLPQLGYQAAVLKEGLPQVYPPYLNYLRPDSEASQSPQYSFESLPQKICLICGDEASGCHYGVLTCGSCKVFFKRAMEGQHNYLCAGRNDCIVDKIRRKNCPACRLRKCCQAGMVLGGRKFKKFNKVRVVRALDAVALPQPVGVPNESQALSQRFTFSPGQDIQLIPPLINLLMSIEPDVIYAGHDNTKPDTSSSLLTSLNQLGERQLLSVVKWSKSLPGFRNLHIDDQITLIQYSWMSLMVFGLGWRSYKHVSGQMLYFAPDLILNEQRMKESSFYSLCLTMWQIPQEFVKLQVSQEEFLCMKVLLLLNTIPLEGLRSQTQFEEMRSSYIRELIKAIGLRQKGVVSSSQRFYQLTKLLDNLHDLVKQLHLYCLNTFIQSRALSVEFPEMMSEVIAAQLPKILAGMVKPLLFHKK

Estrogen receptor = molecular target: T2, Estrogen receptor (Homo sapiens, UniProt P03372)
T2 sequence (P03372 whole entry): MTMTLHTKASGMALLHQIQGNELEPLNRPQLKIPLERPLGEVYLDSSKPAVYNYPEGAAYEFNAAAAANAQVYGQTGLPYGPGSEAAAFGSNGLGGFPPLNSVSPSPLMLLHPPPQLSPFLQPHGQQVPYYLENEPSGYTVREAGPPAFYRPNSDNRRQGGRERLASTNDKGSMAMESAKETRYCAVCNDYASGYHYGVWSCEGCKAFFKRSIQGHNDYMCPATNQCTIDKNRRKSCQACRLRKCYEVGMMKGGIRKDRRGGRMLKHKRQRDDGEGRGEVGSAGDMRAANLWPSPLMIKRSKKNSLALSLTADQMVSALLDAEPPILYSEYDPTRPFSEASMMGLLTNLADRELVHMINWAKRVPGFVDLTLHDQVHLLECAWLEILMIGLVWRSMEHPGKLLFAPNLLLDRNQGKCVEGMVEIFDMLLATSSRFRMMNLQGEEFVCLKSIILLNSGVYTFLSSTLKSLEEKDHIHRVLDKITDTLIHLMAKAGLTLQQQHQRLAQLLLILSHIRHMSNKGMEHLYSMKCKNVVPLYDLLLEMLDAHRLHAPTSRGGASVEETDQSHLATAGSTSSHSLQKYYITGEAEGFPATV
Description: Antagonist activity at estrogen receptor alpha ligand binding domain expressed in african green monkey COS7 cells co-transfected with Gal4-LBD by luciferase reporter gene assay

[1] = molecular target: T3, Progesterone receptor (Homo sapiens) (UniProt P06401); assay: Ratio of compound IC50 to progesterone IC50 for progesterone receptor in human T47D cells; assay type: cell-based
T3 sequence (whole entry): T1 sequence (P06401 whole entry)

Glucocorticoid receptor = molecular target: T4, Glucocorticoid receptor (Homo sapiens, UniProt P04150)
T4 sequence (P04150 whole entry): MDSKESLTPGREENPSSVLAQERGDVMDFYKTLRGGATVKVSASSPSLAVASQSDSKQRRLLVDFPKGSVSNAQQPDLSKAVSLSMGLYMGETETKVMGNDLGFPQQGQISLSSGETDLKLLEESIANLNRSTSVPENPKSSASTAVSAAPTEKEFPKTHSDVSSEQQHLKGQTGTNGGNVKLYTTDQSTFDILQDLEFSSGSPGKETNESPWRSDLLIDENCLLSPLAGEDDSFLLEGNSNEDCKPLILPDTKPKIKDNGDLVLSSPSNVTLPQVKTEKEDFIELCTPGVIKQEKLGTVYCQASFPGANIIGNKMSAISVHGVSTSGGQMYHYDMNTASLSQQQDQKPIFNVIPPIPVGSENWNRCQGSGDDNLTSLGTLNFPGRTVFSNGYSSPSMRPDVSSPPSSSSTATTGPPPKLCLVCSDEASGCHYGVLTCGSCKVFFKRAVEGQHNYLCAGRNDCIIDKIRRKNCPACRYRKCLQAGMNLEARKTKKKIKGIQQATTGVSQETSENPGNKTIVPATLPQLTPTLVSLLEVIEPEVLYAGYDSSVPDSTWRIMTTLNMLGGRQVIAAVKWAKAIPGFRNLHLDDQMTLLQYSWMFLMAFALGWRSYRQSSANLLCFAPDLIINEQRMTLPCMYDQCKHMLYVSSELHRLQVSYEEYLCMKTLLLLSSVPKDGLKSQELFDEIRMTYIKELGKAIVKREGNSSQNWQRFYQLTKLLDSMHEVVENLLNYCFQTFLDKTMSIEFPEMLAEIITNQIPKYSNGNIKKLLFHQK
Description: Antagonist activity at glucocorticoid receptor ligand binding domain expressed in african green monkey COS7 cells co-transfected with Gal4-LBD by luciferase reporter gene assay

CC1(C)[C@H](O)CC[C@]2(C)[C@@]3(C)c4[nH]c5ccccc5c4C[C@@H]3CC[C@@]12O [LECANINDOLE D]
pIC50 (Progesterone receptor): 7.24 | pIC50 (Estrogen receptor): < 5.00 | Ratio IC50 [1]: 10 | pIC50 (Glucocorticoid receptor): < 6.00

— ChEMBL document CHEMBL1154793, “The lecanindoles, nonsteroidal progestins from the terrestrial fungus Verticillium lecanii 6144” (J Nat Prod, 2009)
